Experimental data published in patent US20250213560A1, “NITROGEN-CONTAINING HETEROCYCLIC COMPOUNDS HAVING PHENYL GROUP AND USES THEREOF” (BNH RESEARCH CO., LTD., priority 2022, published 2025).

Columns and labels:
293T cells = test: Cytotoxicity test (CCK-8 cell viability) in 293T cells; format: cell-based, human; details: 293T cell line
Experimental: Human undifferentiated neuroblastoma cell line SH-SY5Y and human embryonic kidney cell line (HEK)-293T were purchased from Korean Cell Line Bank (Korea) and Takara (Japan), respectively. Cells were grown in HyClone Minimal Essential Medium (MEM) and Dulbecco's Modified Eagle Medium (DMEM), respectively, supplemented with 10% (v/v) fetal bovine serum (FBS), penicillin (100 U/mL), and streptomycin ([…]). Cells were maintained in a humidified atmosphere of 95% air and 5% CO2 at 37° C. Cells were passaged 10 times at maximum. Cells were dissociated using 0.05% trypsin-EDTA solution and the cells were seeded in new culture dishes for maintenance.
To examine the cytotoxicity of compounds described herein in human cell lines, SH-SY5Y and 293T cells were used. Approximately 8,000 cells (for 293T) and 15,000 cells (for SH-SY5Y) were plated per well of a 96-well plate (SPL Life Sciences Co., Ltd., Pocheon, Korea). After incubating at 37° C. for 24 hours in a humidified atmosphere containing 5% CO2, the culture medium was replaced by a series of concentrations of test compounds diluted in the corresponding culture medium.
The time of co-incubation was 24 hours and six replicates were made for each measurement. Finally, 10 μL of CCK-8 reagent (Dojindo Laboratories, Rockville, MD) was added to each well, and after incubation at 37° C. for 3 minutes, the OD at 450 nm was measured using a multifunction microplate reader (Tecan Infinite M200 Pro). These measurements were compared to that of a control and expressed as a percentage of the control to calculate cell viability. The IC50 value was calculated using SPSS software. To do this, the absorbance of the blank wells with only growth medium is subtracted from the values or the wells with cells. The readout value of background (vehicle) was set as a 100% viability, and then the percent viability for each test solution was calculated.
The data was presented as the mean value and standard error of the mean (S.E.M.). Statistical analysis was performed with the one-way ANOVA with Tukey's post hoc test (GraphPad Prism 5 software package, version 5.02, GraphPad Software Inc. USA). Significance was accepted at p<0.05.
The cytotoxicity of the compound was evaluated by treating cells with BnH12003 and measuring cell viability.
By treating cells with various BnH12 series compounds and measuring cell viability using the experimental procedure described in Example 2, the cytotoxicity of the compounds was evaluated.

GluN2B = GluN2B protein expression by Western blot in primary cortical neuron cells; format: cell-based, mouse; details: for Western blot results Mean (GluN2B expression): relative value, vehicle set to 1, primary cortical neurons treated for 24 hours; for GluN2B expression effect (in words): compared to vehicle / other compounds, Table 5
Experimental: Meanwhile, primary cortical neuron cells were isolated from cerebral cortices of 18-day-old mouse fetuses, incubated in prep media (composition (mM): NaCl 107.5, NaH2PO4 1, NaHCO333.5, glucose 11, HEPS 1%, penicillin-streptomycin 1%) containing 0.25% trypsin and DNasel for 30 minutes, dissociated into single cells, and seeded. Primary cortical neuron cells were grown in Neurobasal medium supplemented with 1% (v/v) B27, 1% penicillin (100 U/mL), streptomycin ([…]), and 1% Glutamax. Cells were maintained in a humidified atmosphere of 95% air and 5% CO2 at 37° C. Drug efficacy was evaluated after culturing primary cortical neuron cells for 14 days.
The amount of GluN2B reacted with the compound of the present disclosure was measured using Western blot. The fetal cerebral cortex was extracted from mice at 17 days of gestation, dissociated into single cells, cultured for 13 days, and treated with BnH drugs for 24 hours. The drug-treated cells were subjected to protein lysate preparation using RIPA protein lysis buffer containing protease and phosphatase inhibitors. The protein concentration was determined using a BCA protein assay kit (Pierce Biotechnology) using bovine serum albumin as a standard. Equal amounts of protein (20 μg per lane) were separated by electrophoresis on SDS-polyacrylamide gels at 90 V for 2 hours, then transferred from the SDS-polyacrylamide gel to PVDF membrane at 100 V for 1 hour. Then, primary reaction with GluN2B antibody (ab65783, Abcam) was performed at 4° C. for 1 day, washed three times at 10-minutes intervals with 1×PBT, and secondary reaction was performed with anti-mouse antibody (sc-2357, Santa Cruz) for 1 hour, followed by washing three times at 10-minutes intervals with 1×PBT. Western blotting was performed as described above to confirm GluN2B protein expression. Subsequently, each blot was re-probed using anti-β-actin antibody (sc-47778, Santa Cruz). Housekeeping protein B-actin was detected as a normalization control.
The increase and decrease of BnH12 series were confirmed by setting the vehicle to 1 (N for each group was 3 or more).
Using the experimental procedure described in Example 3, it was determined whether various BnH12 series compounds increase GluN2B expression, and the results are shown in Table 5. These in vitro experimental results are expressed as relative values to the group (vehicle) that was not treated with the compound, with the effect of the group set to 1.

C[C@@H]1CC[C@H](C(=O)O)CN1C(=O)Cc1ccc(-c2cncnc2)cc1 [BnH12071, (3S,6R)-6-methyl-1-(2-(4-(pyrimidin-5-yl)phenyl)acetyl) piperidine-3-carboxylic acid]
Cell viability test results (CCK) 10 uM (293T cells): 80%<
Cell viability test results (CCK) 100 uM (293T cells): 75%<
Western blot results Mean (GluN2B expression) (GluN2B): 1.799

C[C@H]1CC[C@@H](C(=O)O)CN1C(=O)Cc1ccc(-c2cccc([N+](=O)[O-])c2)cc1 [BnH12072, (3R,6S)-6-methyl-1-(2-(3′-nitro-8 1,l′-biphenyl9-4-yl)acetyl) piperidine-3-carboxylic acid]
Cell viability test results (CCK) 10 uM (293T cells): 90%<
Cell viability test results (CCK) 100 uM (293T cells): 80%<
Western blot results Mean (GluN2B expression) (GluN2B): 1.822

C[C@H]1CC[C@@H](C(=O)O)CN1C(=O)Cc1cccc(-c2ccccc2)c1 [BnH12078]
Cell viability test results (CCK) 10 uM (293T cells): 90%<
Cell viability test results (CCK) 100 uM (293T cells): 75%<
Western blot results Mean (GluN2B expression) (GluN2B): 1.017

C[C@H]1CC[C@@H](C(=O)O)CN1C(=O)Cc1ccc(-c2ccc(C3CCCCC3)cc2)cc1 [BnH12085, (3R,6S)-1-(2-(4′-cyclohexyl-8 1,l′-biphenyl9-4-yl)acetyl)-6-methylpiperidine-3-carboxylic acid]
Cell viability test results (CCK) 10 uM (293T cells): 30%<
Cell viability test results (CCK) 100 uM (293T cells): 0%<
Western blot results Mean (GluN2B expression) (GluN2B): 1.557

C[C@H]1CC[C@@H](C(=O)O)CN1C(=O)Cc1ccc(-c2ccc(N)cc2)cc1 [BnH12086, (3R,6S)-1-(2-(4′-amino-8 1,l′-biphenyl9-4-yl)acetyl)-6-methylpiperidine-3-carboxylic acid]
Cell viability test results (CCK) 10 uM (293T cells): 80%<
Cell viability test results (CCK) 100 uM (293T cells): 70%<
Western blot results Mean (GluN2B expression) (GluN2B): 1.753

C[C@H]1CC[C@@H](C(=O)O)CN1C(=O)Cc1ccc(-c2cccc(N)c2)cc1 [BnH12088, (3R,6S)-1-(2-(3′-amino-8 1,l′-biphenyl9-4-yl)acetyl)-6-methylpiperidine-3-carboxylic acid]
Cell viability test results (CCK) 10 uM (293T cells): 90%<
Cell viability test results (CCK) 100 uM (293T cells): 90%<
Western blot results Mean (GluN2B expression) (GluN2B): 1.219

C[C@H]1CC[C@@H](C(=O)O)CN1C(=O)Cc1ccc(-c2ccc(-c3cccnc3)cc2)cc1 [BnH12089, (3R,6S)-6-methyl-1-(2-(4'-(pyridin-3-yl)-[1,1'-biphenyl]-4-yl)acetyl)piperidine-3-carboxylic acid]
Cell viability test results (CCK) 10 uM (293T cells): 65%<
Cell viability test results (CCK) 100 uM (293T cells): 55%<
Western blot results Mean (GluN2B expression) (GluN2B): 1.409

CCN(CC)c1ccc(-c2ccc(CC(=O)N3C[C@H](C(=O)O)CC[C@@H]3C)cc2)cc1 [BnH12090, (3R,6S)-1-(2-(4′-(diethylamino)-8 1,1′-biphenyl9-4-yl)acetyl)-6-methylpiperidine-3-carboxylic acid]
Cell viability test results (CCK) 10 uM (293T cells): 85%<
Cell viability test results (CCK) 100 uM (293T cells): 30%<
Western blot results Mean (GluN2B expression) (GluN2B): 1.698

C[C@H]1CC[C@@H](C(=O)O)CN1C(=O)Cc1cccc(-c2ccncc2)c1 [BnH12091, (3R,6S)-6-methyl-1-(2-(3-(pyridin-4-yl)phenyl)acetyl) piperidine-3-carboxylic acid]
Cell viability test results (CCK) 10 uM (293T cells): 95%<
Cell viability test results (CCK) 100 uM (293T cells): 85%<
GluN2B expression effect (in words) (GluN2B): excellent effects
Western blot results Mean (GluN2B expression) (GluN2B): 5.013

COc1ccc(-c2cccc(CC(=O)N3C[C@H](C(=O)O)CC[C@@H]3C)c2)cn1 [BnH12092, (3R,6S)-1-(2-(3-(6-methoxypyridin-3-yl)phenyl)acetyl)-6-methylpiperidine-3-carboxylic acid]
Cell viability test results (CCK) 10 uM (293T cells): 90%<
Cell viability test results (CCK) 100 uM (293T cells): 75%<
GluN2B expression effect (in words) (GluN2B): excellent effects
Western blot results Mean (GluN2B expression) (GluN2B): 3.524

C[C@H]1CC[C@@H](C(=O)O)CN1C(=O)Cc1cccc(-c2ncc(F)cn2)c1 [BnH12093, (3R,6S)-1-(2-(3-(5-fluoropyrimidin-2-yl)phenyl)acetyl)-6-methylpiperidine-3-carboxylic acid]
Cell viability test results (CCK) 10 uM (293T cells): 85%<
Cell viability test results (CCK) 100 uM (293T cells): 80%<
Western blot results Mean (GluN2B expression) (GluN2B): 1.611

C[C@H]1CC[C@@H](C(=O)O)CN1C(=O)Cc1cccc(-c2cncnc2)c1 [BnH12095, (3R,6S)-6-methyl-1-(2-(3-(pyrimidin-5-yl)phenyl)acetyl) piperidine-3-carboxylic acid]
Cell viability test results (CCK) 10 uM (293T cells): 80%<
Cell viability test results (CCK) 100 uM (293T cells): 75%<
GluN2B expression effect (in words) (GluN2B): excellent effects
Western blot results Mean (GluN2B expression) (GluN2B): 2.871
